Results from PubChem BioAssay (NCI).
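Method: 48-hour compound exposure of cells in 96-well plates, five concentrations, linear interpolation of endpoints. TGI marks complete inhibition of growth.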

Tests used:
Assay in all cases: growth of human tumour cells (NCI), 48 h
CAKI-1 renal = system: CAKI-1 renal
HS 578T breast = system: HS 578T breast
LOX IMVI melanoma = system: LOX IMVI melanoma
RPMI-8226 leukemia = system: RPMI-8226 leukemia
MDA-MB-435 = system: MDA-MB-435
MOLT-4 leukemia = system: MOLT-4 leukemia
SF-268 CNS = system: SF-268 CNS
MALME-3M melanoma = system: MALME-3M melanoma
HT29 colon = system: HT29 colon
A549 NSCLC = system: A549 NSCLC
HOP-92 NSCLC = system: HOP-92 NSCLC
HCT-116 colon = system: HCT-116 colon
NCI/ADR-RES ovarian = system: NCI/ADR-RES ovarian
OVCAR-5 ovarian = system: OVCAR-5 ovarian
SK-MEL-28 melanoma = system: SK-MEL-28 melanoma
NCI-H226 lung = system: NCI-H226 lung
SK-OV-3 ovarian = system: SK-OV-3 ovarian
SW-620 colon = system: SW-620 colon
OVCAR-3 ovarian = system: OVCAR-3 ovarian
KM12 colon = system: KM12 colon
T-47D breast = system: T-47D breast
COLO 205 colon = system: COLO 205 colon
NCI-H522 lung = system: NCI-H522 lung
K-562 leukemia = system: K-562 leukemia
CCRF-CEM leukemia = system: CCRF-CEM leukemia
UO-31 renal = system: UO-31 renal
MDA-N = system: MDA-N
PC-3 prostate = system: PC-3 prostate
SNB-19 CNS = system: SNB-19 CNS
HL-60(TB) leukemia = system: HL-60(TB) leukemia
HCC-2998 colon = system: HCC-2998 colon
SK-MEL-5 melanoma = system: SK-MEL-5 melanoma
SF-295 CNS = system: SF-295 CNS
SK-MEL-2 melanoma = system: SK-MEL-2 melanoma
HOP-62 NSCLC = system: HOP-62 NSCLC
SR leukemia = system: SR leukemia
786-0 renal = system: 786-0 renal
SN12C renal = system: SN12C renal
OVCAR-4 ovarian = system: OVCAR-4 ovarian
HCT-15 colon = system: HCT-15 colon
SNB-75 CNS = system: SNB-75 CNS
BT-549 breast = system: BT-549 breast
DU-145 prostate = system: DU-145 prostate
RXF 393 renal = system: RXF 393 renal
OVCAR-8 ovarian = system: OVCAR-8 ovarian
M14 melanoma = system: M14 melanoma
UACC-257 melanoma = system: UACC-257 melanoma
IGROV1 ovarian = system: IGROV1 ovarian
NCI-H23 lung = system: NCI-H23 lung
SF-539 CNS = system: SF-539 CNS
EKVX NSCLC = system: EKVX NSCLC
NCI-H460 lung = system: NCI-H460 lung
TK-10 renal = system: TK-10 renal
UACC-62 melanoma = system: UACC-62 melanoma
ACHN renal = system: ACHN renal
U251 CNS = system: U251 CNS

Measured: TGI

COc1cccc(N=Cc2cc3cc(Br)ccc3nc2Cl)c1
48.8 µM: CCRF-CEM leukemia
20.8 µM: SR leukemia
2.63 µM: OVCAR-4 ovarian
11.3 µM: 786-0 renal
25.7 µM: NCI-H226 lung
41.6 µM: RPMI-8226 leukemia
not listed: TK-10 renal | UACC-62 melanoma | ACHN renal | U251 CNS
> 50 µM: all other assays above

COC(=O)C(CC12CC3CC(CC(C3)C1)C2)NC(=O)C(N)CC(=O)O (stereo unspecified)
not listed: LOX IMVI melanoma | MALME-3M melanoma | NCI-H226 lung | OVCAR-3 ovarian | HL-60(TB) leukemia | M14 melanoma | SF-539 CNS
> 100 µM: all other assays above
